In paper PMC7730549, “Design, Synthesis and Evaluation of New Bioactive Oxadiazole Derivatives as Anticancer Agents Targeting Bcl-2” (International Journal of Molecular Sciences, 2020):

What was measured:
KG1a (AML) cells = assay: CellTiter-Blue cell viability assay, KG1a; type: cell-based, human; settings: CellTitre-Blue assay, 24 h incubation, Bcl-2 +ve, mean of three independent experiments ±SEM
Description: (§1) Evaluation of anti-proliferative activity for the new 2-(1H-indol-3-yl)-5-substituted-1,3,4-oxadiazoles (4a–m) was carried out in Bcl-2-expressing human metastatic breast (MDA-MB-231) and cervical (HeLa) cancer cell lines, using the MTT endpoint assay, following 72 h incubation of test compound, according to previously established protocols. Further analysis within the non-adherent leukemic cell lines KG1a (acute myelogenous leukemia, Bcl-2 +ve) and Jurkat (T-cell leukemia, Bcl-2 −ve,) was carried out by using the CellTiter-Blue® assay according to published precedent.
(§2) Human acute myeloid leukemia KG1a and acute T-cell lymphocytic Jurkat cells were cultured and maintained as previously described. For each experiment 15,000 cells in 0.1 mL of medium were seeded into each well of a solid-black fluorescence 96-well plate and incubated for 24 h. The cells were then incubated with test compound (from 10 mM stock in DMSO), over a 10-fold dilution series, with concentrations ranging from 0.00001 to 100 μM and each diluent being performed in triplicate. Cells were incubated with test compound for 24 h, followed by treatment with CellTiter-Blue® solution and reading of fluorescence according to our previous protocol. Mean IC50 values were obtained by using GraphPad Prism 5 software (San Diego, CA, USA). For each concentration, three independent repeat experiments were carried out, to establish reproducibility.

[1] = test system: MDA-MB-231 (metastatic breast) cells; assay: MTT anti-proliferative assay, MDA-MB-231; type: cell-based, human; settings: Bcl-2 expressing, mean of three independent experiments ±SEM
Description: as §1
(§3) Human breast cancer (MDA-MB-231) and cervical cancer (HeLa) cells, obtained from the ATCC (Manassas, VA, USA), were cultured and maintained as previously described. For each experiment, 3000 cells in 0.2 mL of medium were seeded into each well of a clear flat-bottomed 96-well plate and allowed to adhere for 24 h. The cells were then incubated with the test compound (from 10 mM stock in DMSO), over a 10-fold dilution series, with concentrations ranging from 0.00001 to 100 μM and each diluent being performed in triplicate. Cells were incubated with the test compound for 72 h, followed by treatment with 3-[4,5-dimethylthiazol-2-yl]-2,5-diphenyl tetrazolium bromide (MTT) solution and reading of absorbance (automated microplate) according to our previous protocol. Mean IC50 values were obtained by using GraphPad Prism 5 software (San Diego, CA, USA). For each concentration, three independent repeat experiments were carried out to establish reproducibility.

HeLa (cervical) cells = assay: MTT anti-proliferative assay, HeLa; type: cell-based, human; settings: 72 h incubation, Bcl-2 expressing, mean of three independent experiments ±SEM
Description: as §1, §3

His-tagged Bcl-2 protein = His-tagged Bcl-2 protein (Homo sapiens, UniProt P10415); assay: Competitive Bcl-2 ELISA binding assay (Bim peptide / His-tagged Bcl-2); settings: for IC50: competition with biotinylated Bim peptide for His-tagged Bcl-2, mean ± SEM of three independent experiments; for Bcl-2 binding activity in the ELISA assay: competitive ELISA, Bim peptide
Chain of His-tagged Bcl-2 protein (P10415 whole entry, the tested form may be a part): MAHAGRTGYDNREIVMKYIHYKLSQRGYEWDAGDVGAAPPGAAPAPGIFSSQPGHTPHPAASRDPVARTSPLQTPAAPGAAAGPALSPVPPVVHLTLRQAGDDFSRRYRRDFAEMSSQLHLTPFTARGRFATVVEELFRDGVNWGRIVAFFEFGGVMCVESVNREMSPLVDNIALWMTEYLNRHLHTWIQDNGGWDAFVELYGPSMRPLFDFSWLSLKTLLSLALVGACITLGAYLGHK
Description: Compounds were evaluated according to their ability to compete with the pro-apoptotic BH3 domain Bim peptide for binding to His-tagged Bcl-2 protein, with a readout from anti-His secondary antibody conjugated to HRP (horseradish peroxidase) enzyme that produces a colorimetric readout in the presence of o-phenylenediamine (competitive ELISA assay).
The ELISA assay to determine the ability of test compounds (10-fold dilution series) to compete with the interaction between biotinylated Bim peptide and His-tagged Bcl-2 protein was carried out according to our previously published protocol. The addition of anti-His antibody containing horseradish peroxidase enzyme, followed by the addition of o-phenylenediamine and hydrogen peroxide, allowed for the determination of optical density, using a plate reader (450 nm). The experiments were carried out on three separate occasions, including both negative and positive controls. A plot of log μM concentration for each inhibitor against the percentage reduction in affinity for the Bim peptide was created, using non-linear regression curve analysis (GraphPad Prism 5, San Diego, CA, USA) and the software used to generate the IC50 value for the Bcl-2 inhibitor.

[2] = test system: Jurkat (T-cell leukemia) cells; assay: CellTiter-Blue cell viability assay, Jurkat; type: cell-based, human; settings: for IC50: CellTitre-Blue assay, 24 h incubation, Bcl-2 −ve, mean of three independent experiments ±SEM
Description: as §1, §2

[3] = test system: Bcl-2 expressing cell lines (MDA-MB-231, HeLa and KG1a); assay: Anti-proliferative activity across Bcl-2 expressing cell lines (MDA-MB-231, HeLa, KG1a); type: cell-based; settings: Homo sapiens; MDA-MB-231, HeLa and KG1a taken together; read-out: IC50 values against Bcl-2 expressing cell lines
Description: as §1
Human breast cancer (MDA-MB-231) and cervical cancer (HeLa) cells, obtained from the ATCC (Manassas, VA, USA), were cultured and maintained as previously described. […] Cells were incubated with the test compound for 72 h, followed by treatment with 3-[4,5-dimethylthiazol-2-yl]-2,5-diphenyl tetrazolium bromide (MTT) solution and reading of absorbance (automated microplate) according to our previous protocol. […]
Human acute myeloid leukemia KG1a and acute T-cell lymphocytic Jurkat cells were cultured and maintained as previously described. For each experiment 15,000 cells in 0.1 mL of medium were seeded into each well of a solid-black fluorescence 96-well plate and incubated for 24 h. […]

[4] = Homo sapiens, MDA-MB-231, 72 h incubation

| Compound | IC50 [1, 4] [µM] | IC50 (HeLa (cervical) cells; Homo sapiens, HeLa) [nM] | IC50 (His-tagged Bcl-2 protein) [nM] | IC50 ([2]; Homo sapiens, Jurkat) [µM] | melting point [°C] | binding potency relative to positive control gossypol (His-tagged Bcl-2 protein; Bcl-2 ELISA binding affinity assay) | IC50 [3] [nM] | Bcl-2 binding activity in the ELISA assay (His-tagged Bcl-2 protein) | IC50 ([1]; 72 h incubation) [µM] | IC50 (HeLa (cervical) cells) [nM] | IC50 [2] [µM] | IC50 (KG1a (AML) cells; Homo sapiens, KG-1a) [nM] | inhibitory effect in the Bcl-2 negative cell line ([2]; Jurkat, Bcl-2 negative) | IC50 (KG1a (AML) cells) [nM] |
| --- | --- | --- | --- | --- | --- | --- | --- | --- | --- | --- | --- | --- | --- | --- |
| COc1cccc(Cc2nnc(-c3c[nH]c4ccccc34)o2)c1 [Compound 4e, 2-(1H-Indol-3-yl)-5-(3-methoxybenzyl)-1,3,4-oxadiazole] | 6.28 ± 0.2 | 3140 ± 140 | 2720 ± 200 | > 100 | 208 to 210 | – | – | – | – | – | – | 3660 ± 150 | – | – |
| Cc1ccc(OCc2nnc(-c3c[nH]c4ccccc34)o2)cc1 [Compound 4b, 2-(1H-Indol-3-yl)-5-(4-methylphenoxymethyl)-1,3,4-oxadiazole] | 31.5 ± 4.8 | 13300 ± 320 | > 100000 | > 100 | 201 to 203 | – | – | inactive | – | – | – | > 100000 | – | – |
| O=[N+]([O-])c1ccc(-c2nnc(-c3c[nH]c4ccccc34)o2)cc1 [Compound 4g, 2-(1H-Indol-3-yl)-5-(4-nitrophenyl)-1,3,4-oxadiazole] | 6.95 ± 0.5 | 1600 ± 120 | – | > 100 | 215 to 217 | – | – | – | – | – | – | > 100000 | – | – |
| c1ccc(Cc2nnc(-c3c[nH]c4ccccc34)o2)cc1 [Compound 4f, 2-(1H-Indol-3-yl)-5-benzyl-1,3,4-oxadiazole] | > 100 | > 100000 | – | > 100 | 187 to 189 | – | – | – | – | – | – | > 100000 | – | – |
| 2-(1H-Indol-3-yl)-5-(5-methoxy-1H-indol-2-yl)-1,3,4-oxadiazole [Compound 4m] | – | – | 840 ± 50 | – | – | – | – | – | 1.79 ± 0.07 | 1190 ± 400 | 57.5 ± 0.58 | – | – | 1870 ± 140 |
| Fc1ccc(OCc2nnc(-c3c[nH]c4ccccc34)o2)cc1 [Compound 4a, 2-(1H-Indol-3-yl)-5-(4-fluorophenoxymethyl)-1,3,4-oxadiazole] | 36.1 ± 3.4 | 12900 ± 1330 | – | > 100 | 210 to 212 | – | – | – | – | – | – | > 100000 | – | – |

Continued, in another order:

| IC50 [1, 4] [µM] | IC50 (HeLa (cervical) cells; Homo sapiens, HeLa) [nM] | IC50 (His-tagged Bcl-2 protein) [nM] | IC50 ([2]; Homo sapiens, Jurkat) [µM] | melting point [°C] | binding potency relative to positive control gossypol (His-tagged Bcl-2 protein; Bcl-2 ELISA binding affinity assay) | IC50 [3] [nM] | Bcl-2 binding activity in the ELISA assay (His-tagged Bcl-2 protein) | IC50 ([1]; 72 h incubation) [µM] | IC50 (HeLa (cervical) cells) [nM] | IC50 [2] [µM] | Compound | IC50 (KG1a (AML) cells; Homo sapiens, KG-1a) [nM] | inhibitory effect in the Bcl-2 negative cell line ([2]; Jurkat, Bcl-2 negative) | IC50 (KG1a (AML) cells) [nM] |
| --- | --- | --- | --- | --- | --- | --- | --- | --- | --- | --- | --- | --- | --- | --- |
| 0.52 ± 0.15 | 880 ± 160 | 330 ± 50 | > 100 | 224 to 226 | two-fold more potent | 520 to 880 | – | – | – | – | FC(F)(F)c1ccc(-c2nnc(-c3c[nH]c4ccccc34)o2)cc1 [Compound 4j, 2-(1H-Indol-3-yl)-5-(4-trifluoromethylphenyl)-1,3,4-oxadiazole] | 730 ± 90 | no inhibitory effects | – |
| 6.02 ± 0.12 | 920 ± 80 | – | 60.59 ± 0.12 | 210 to 212 | – | – | – | – | – | – | COc1ccc(-c2nnc(-c3c[nH]c4ccccc34)o2)cc1 [Compound 4h, 2-(1H-Indol-3-yl)-5-(4-methoxyphenyl)-1,3,4-oxadiazole] | 2210 ± 100 | – | – |
| 3.5 ± 0.16 | 900 ± 30 | 1170 ± 130 | > 100 | 218 to 220 | – | – | – | – | – | – | CC(C)(C)c1ccc(OCc2nnc(-c3c[nH]c4ccccc34)o2)cc1 [Compound 4c, 2-(1H-Indol-3-yl)-5-(4-tert-butylphenoxymethyl)-1,3,4-oxadiazole] | 3450 ± 800 | – | – |
| 1.19 ± 0.1 | 1220 ± 900 | 21000 ± 1090 | 12.2 ± 1.13 | 221 to 222 | – | – | only moderate Bcl-2 binding activity | – | – | – | COc1cc(-c2nnc(-c3c[nH]c4ccccc34)o2)cc(OC)c1OC [Compound 4i, 2-(1H-Indol-3-yl)-5-(3,4,5-trimethoxyphenyl)-1,3,4-oxadiazole] | 975 ± 20 | – | – |
| 1.63 ± 0.08 | 570 ± 40 | 1410 ± 10 | > 100 | 195 to 197 | – | – | – | – | – | – | c1ccc(OCc2nnc(-c3c[nH]c4ccccc34)o2)cc1 [Compound 4d, 2-(1H-Indol-3-yl)-5-(phenoxymethyl)-1,3,4-oxadiazole] | 2560 ± 70 | – | – |
| 0.92 ± 0.19 | 1280 ± 350 | 430 ± 50 | > 100 | 198 to 200 | – | – | – | – | – | – | Cc1ccc(-c2nnc(-c3c[nH]c4ccccc34)o2)cc1 [Compound 4k, 2-(1H-Indol-3-yl)-5-(4-methylphenyl)-1,3,4-oxadiazole] | 1470 ± 130 | – | – |
| 2.97 ± 0.06 | 1520 ± 30 | – | 61.4 ± 1.4 | 240 to 242 | – | – | – | – | – | – | c1ccc2c(-c3nnc(-c4ccc(N5CCCCC5)nc4)o3)c[nH]c2c1 [Compound 4l, 2-(1H-Indol-3-yl)-5-(6-(piperidin-1-yl)-pyridin-3-yl)-1,3,4-oxadiazole] | 4500 ± 310 | – | – |
